The values below come from patent publication US20050222225A1, “Use of compounds for increasing spermatozoa motility” (APPLIED RESEARCH SYSTEMS ARS HOLDING NV, priority 2002, published 2005).

The subject of test [1] is C5a-mediated AKT phosphorylation in Raw 264-7 macrophages. Kind of test: Cell based ELISA: Akt/PKB phosphorylation in macrophages after stimulation with C5a. The note with it: Mus musculus, 50 nM C5a; for inhibition at 10 µM: RAW264.7, compound at 10 μM; for inhibition at 1 µM: RAW264.7, compound at 1 μM. The procedure:
b) Cell Based ELISA to Monitor PI3K Inhibition: Measurement of Akt/PKB phosphorylation in macrophages after stimulation with C5a: Raw 264: Raw 264-7 macrophages (cultured in DMEM-F12 medium containing 10% Fetal Calf serum and antibiotics) are plated at 20'000 cells/well in a 96 MTP 24 h before cell stimulation. Previous to the stimulation with 50 nM of Complement 5a (C5a; which is a well known chemokine which stimulates the used cells) during 5 minutes, Cells are serum starved for 2 h, and pretreated with inhibitors for 20 minutes. After stimulation cells are fixed in 4% formaldehyde for 20 minutes and washed 3 times in PBS containing 1% Triton X-100 (PBS/Triton). Endogenous peroxidase is blocked by a 20 minutes incubation in 0.6% H2O2 and 0.1% Sodium Azide in PBS/Triton and washed 3 times in PBS/Triton. Cells are then blocked by 60 minutes incubation with 10% fetal calf serum in PBS/Triton. Next, phosphorylated Akt/PKB is detected by an overnight incubation at 4° C. with first antibody (anti phospho Serine 473 Akt IHC, Cell Signaling) diluted 800-fold in PBS/Triton, containing 5% bovine serum albumin (BSA). After 3 washes in PBS/Triton, cells are incubated for 60 minutes with a peroxidase conjugated goat-anti-rabbit antibody (1/400 dilution in PBS/Triton, containing 5% BSA), washed 3 times in PBS/Triton, and 2 times in PBS and further incubated in 100 μl of substrate reagent solution (R&D) for 20 minutes. The reaction is stopped by addition of 50 μl of 1 M H2SO4 and absorbance is read at 450 nm. The values indicated reflect the percentage of inhibition of AKT phoshorylation as compared to basal level. Said values show a clear effect of the azolidinone-vinyl fused-benzene compounds on the activation of AKT phosphorylation in macrophages.
A general note: In an ELISA, binding on a coated surface is turned into a signal by an enzyme label.

The target in test [2] is Human recombinant GST-PI3Kγ (Homo sapiens, UniProt P48736). Briefly: High Throughput PI3K Lipid Kinase Assay (scintillation proximity assay, neomycin-coated beads). The format is biochemical. The protocol:
A. a) High Throughput PI3K Lipid Kinase Assay (Binding Assay):
The assay combines the scintillation proximity assay technology (SPA, Amersham) with the capacity of neomycin (a polycationic antibiotic) to bind phospholipids with high affinity and specificity. The Scintillation Proximity Assay is based on the properties of weakly emitting isotopes (such as ^3H, ^125I, ^33P). Coating SPA beads with neomycin allows the detection of phosphorylated lipid substrates after incubation with recombinant PI3K and radioactive ATP in the same well, by capturing the radioactive phospholipids to the SPA beads through their specific binding to neomycin.
To a 384 wells MTP containing 5 μl of the test compound of formula (I) (solubilized in 6% DMSO; to yield a concentration of 100, 30, 10, 3, 1, 0.3, 0.1, 0.03, 0.01, 0.001 μM of the test compound), the following assay components are added. 1) 5 μl (58 ng) of Human recombinant GST-PI3Kγ (in Hepes 40 mM, pH 7.4, DTT 1 mM and ethylenglycol 5%) 2) 10 μl of lipid micelles and 3) 10 μl of Kinase buffer ([^33P]ATP 45 μM/60 nCi, MgCl2 30 mM, DTT 1 mM, β-Glycerophosphate 1 mM, Na3VO4 100 μM, Na Cholate 0.3%, in Hepes 40 mM, pH 7.4). […] After precipitation of the neomycin-coated PVT SPA beads for 5 minutes at 1500×g, radioactive PtdIns(3)P is quantified by scintillation counting in a Wallac MicroBeta™ plate counter. […]
In general terms: In a scintillation proximity assay essentially only radioactivity close to the scintillant gives light.

A further test concerns spermatozoa. Briefly: Sperm cell parameters by computer aided sperm analysis (CASA). To be noted: 10 μM; sperm samples from oligo-asthenospermic subjects; vs control sample. The class given is cell-based, human. An excerpt:
In the experiments the following examples are based on, standard methods of in vitro fertilization have been used. With regard to the details of these methods, reference is made to the “WHO manual” (WHO laboratory manual for the examination of human semen and sperm-cervical mucus interactions, 4th edition, Cambridge University Press 1999). In particular, the direct swim-up method can be taken from pp. 104 to 106 of this manual.
b) Effect of Example 1 Compound on Further Sperm Cell Parameters:
These parameters are determined by computer aided sperm analysis (CASA) in sperm samples from different oligo-asthenospermic subjects.

The structures appear in SMILES notation.

What is called inhibition is the percentage by which the read-out fell short of the control. One may read the IC50 as the concentration needed to halve the response being measured.

Sequence of Human recombinant GST-PI3Kγ (P48736 whole entry): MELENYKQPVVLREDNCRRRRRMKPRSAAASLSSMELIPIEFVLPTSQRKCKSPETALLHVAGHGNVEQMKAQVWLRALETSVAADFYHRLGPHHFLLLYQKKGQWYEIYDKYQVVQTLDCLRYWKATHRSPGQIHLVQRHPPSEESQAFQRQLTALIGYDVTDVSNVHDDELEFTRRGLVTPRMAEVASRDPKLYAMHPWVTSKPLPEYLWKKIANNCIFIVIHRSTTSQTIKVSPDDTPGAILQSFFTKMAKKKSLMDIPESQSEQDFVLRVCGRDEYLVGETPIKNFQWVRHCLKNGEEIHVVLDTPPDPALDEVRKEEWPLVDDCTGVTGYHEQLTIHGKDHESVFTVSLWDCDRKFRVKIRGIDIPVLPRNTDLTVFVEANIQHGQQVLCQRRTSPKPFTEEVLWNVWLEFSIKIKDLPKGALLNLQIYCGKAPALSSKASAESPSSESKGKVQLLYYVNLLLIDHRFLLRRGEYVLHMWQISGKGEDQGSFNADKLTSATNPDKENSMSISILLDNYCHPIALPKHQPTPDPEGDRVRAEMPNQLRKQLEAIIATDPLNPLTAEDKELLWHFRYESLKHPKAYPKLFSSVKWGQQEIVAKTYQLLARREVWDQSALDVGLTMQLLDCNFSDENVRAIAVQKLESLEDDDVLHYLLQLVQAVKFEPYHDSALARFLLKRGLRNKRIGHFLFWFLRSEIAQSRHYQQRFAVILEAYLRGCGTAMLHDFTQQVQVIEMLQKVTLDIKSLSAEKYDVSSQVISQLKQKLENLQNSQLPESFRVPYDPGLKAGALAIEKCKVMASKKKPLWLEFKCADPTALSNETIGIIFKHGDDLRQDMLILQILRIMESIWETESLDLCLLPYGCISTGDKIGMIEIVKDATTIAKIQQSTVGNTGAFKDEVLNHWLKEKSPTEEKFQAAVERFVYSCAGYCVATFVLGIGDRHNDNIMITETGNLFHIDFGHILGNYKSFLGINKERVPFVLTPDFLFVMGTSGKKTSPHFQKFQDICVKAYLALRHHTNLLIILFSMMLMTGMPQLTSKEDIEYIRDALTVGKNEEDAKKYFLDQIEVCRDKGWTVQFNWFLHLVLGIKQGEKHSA

In turn, `O=C1NC(=O)/C(=C/c2ccc3nsnc3c2)S1` [Example 107, 5-Benzo[1,2,5]thiadiazol-5-ylmethylene-thiazolidine-2,4-ione] had an inhibition at 10 µM in test [1] of about 100%. Besides, the IC50 in test [2] is under 1 µM.

Take `N=C1NC(=O)/C(=C/c2ccc3ncnc(N4CCCCC4)c3c2)S1` [Example 41, 2-Imino-5-(4-piperidine-quinazolin-6-ylmethylene)-thiazolidin-4-one]: the IC50 in test [2] was under 1 µM.

Molecule `CN(C)c1ncnc2ccc(/C=C3\SC(=O)NC3=O)cc12` [Example 17, 5-(4-Dimethylamino-quinazolin-6-ylmethylene)-thiazolidine-2,4-dione] returned an inhibition at 1 µM in test [1] of 95%.

In test [1], `O=C1NC(=O)C(=Cc2ccc3ncnc(N4CCCCC4)c3c2)S1` [Example 19, 5-[(4-piperidin-1-ylquinazolin-6-yl)methylene]-1,3-thiazolidine-2,4-dione] returned an inhibition at 1 µM of 95% and an inhibition at 10 µM of about 100%.

In test [1], `O=C1NC(=O)/C(=C/c2ccc3occ(/C=C/C(=O)N4CCCCC4)c3c2)S1` [Example 73, 5-[3-(3-Oxo-3-piperidin-1-yl-propenyl)-benzofuran-5-ylmethylene]-thiazolidine-2,4-dione] displayed an inhibition at 1 µM of 95%.

In test [1], `N=C1NC(=O)/C(=C/c2ccc3nccnc3c2)S1` [Example 66, 2-Imino-5-quinoxalin-6-ylmethylene-thiazolidin-4-one] displayed an inhibition at 10 µM of about 100%.

For `O=C1NC(=O)/C(=C/c2ccc3c(c2)OCO3)S1` [Example 1, 5-(1,3-benzodioxol-5-ylmethylene)-1,3-thiazolidine-2,4-dione], in the test on spermatozoa, the “average path velocity (VAP)” value is on record as “increased in a statistically significant manner”, the “hyper-activated sperm fraction (HA)” value is on record as “increased in a statistically significant manner”, the “percentage curvilinear velocity (VCL)” value was “increased in a statistically significant manner” and the “straight-line velocity (VSL)” value is listed as “increased in a statistically significant manner”. The same molecule returned an inhibition at 10 µM in test [1] of about 100%.
